Source: patent publication US10112926B2 (priority 2014, dated 2018)
Counter-ions that a name gives are not always drawn.

Columns and labels:
mTOR = mTOR (Homo sapiens (Human), UniProt P42345); conditions: read-out: Assay G mTOR IC50
Vps34 = Vps34 (Homo sapiens (Human), UniProt Q8NEB9); conditions: read-out: Assay C VPS34 IC50
PI 4-kinase beta = PI 4-kinase beta (Homo sapiens (Human), UniProt Q9UBF8); conditions: read-out: Assay D PI4Kβ IC50
Sequence of PI 4-kinase beta (Q9UBF8 whole entry): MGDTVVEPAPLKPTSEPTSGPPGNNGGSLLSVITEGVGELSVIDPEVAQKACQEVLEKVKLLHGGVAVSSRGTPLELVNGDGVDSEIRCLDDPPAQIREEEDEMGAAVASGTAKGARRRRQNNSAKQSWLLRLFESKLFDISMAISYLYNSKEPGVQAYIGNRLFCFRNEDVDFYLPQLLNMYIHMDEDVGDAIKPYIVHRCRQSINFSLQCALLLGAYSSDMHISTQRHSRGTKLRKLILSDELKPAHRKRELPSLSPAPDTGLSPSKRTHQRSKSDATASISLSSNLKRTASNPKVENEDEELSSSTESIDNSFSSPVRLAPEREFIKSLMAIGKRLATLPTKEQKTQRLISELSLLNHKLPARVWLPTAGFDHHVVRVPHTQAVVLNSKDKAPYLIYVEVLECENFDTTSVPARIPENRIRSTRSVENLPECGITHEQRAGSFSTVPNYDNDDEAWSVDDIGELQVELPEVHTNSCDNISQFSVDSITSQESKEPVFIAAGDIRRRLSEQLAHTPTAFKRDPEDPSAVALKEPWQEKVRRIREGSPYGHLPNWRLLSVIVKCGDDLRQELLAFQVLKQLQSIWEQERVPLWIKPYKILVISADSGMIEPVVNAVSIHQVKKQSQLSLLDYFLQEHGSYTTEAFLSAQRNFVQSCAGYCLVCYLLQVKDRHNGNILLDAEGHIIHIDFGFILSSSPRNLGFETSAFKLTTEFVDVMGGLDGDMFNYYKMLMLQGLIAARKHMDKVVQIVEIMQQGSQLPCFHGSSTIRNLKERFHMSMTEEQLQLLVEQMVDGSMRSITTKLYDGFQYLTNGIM

Sequence of Vps34 (Q8NEB9 whole entry): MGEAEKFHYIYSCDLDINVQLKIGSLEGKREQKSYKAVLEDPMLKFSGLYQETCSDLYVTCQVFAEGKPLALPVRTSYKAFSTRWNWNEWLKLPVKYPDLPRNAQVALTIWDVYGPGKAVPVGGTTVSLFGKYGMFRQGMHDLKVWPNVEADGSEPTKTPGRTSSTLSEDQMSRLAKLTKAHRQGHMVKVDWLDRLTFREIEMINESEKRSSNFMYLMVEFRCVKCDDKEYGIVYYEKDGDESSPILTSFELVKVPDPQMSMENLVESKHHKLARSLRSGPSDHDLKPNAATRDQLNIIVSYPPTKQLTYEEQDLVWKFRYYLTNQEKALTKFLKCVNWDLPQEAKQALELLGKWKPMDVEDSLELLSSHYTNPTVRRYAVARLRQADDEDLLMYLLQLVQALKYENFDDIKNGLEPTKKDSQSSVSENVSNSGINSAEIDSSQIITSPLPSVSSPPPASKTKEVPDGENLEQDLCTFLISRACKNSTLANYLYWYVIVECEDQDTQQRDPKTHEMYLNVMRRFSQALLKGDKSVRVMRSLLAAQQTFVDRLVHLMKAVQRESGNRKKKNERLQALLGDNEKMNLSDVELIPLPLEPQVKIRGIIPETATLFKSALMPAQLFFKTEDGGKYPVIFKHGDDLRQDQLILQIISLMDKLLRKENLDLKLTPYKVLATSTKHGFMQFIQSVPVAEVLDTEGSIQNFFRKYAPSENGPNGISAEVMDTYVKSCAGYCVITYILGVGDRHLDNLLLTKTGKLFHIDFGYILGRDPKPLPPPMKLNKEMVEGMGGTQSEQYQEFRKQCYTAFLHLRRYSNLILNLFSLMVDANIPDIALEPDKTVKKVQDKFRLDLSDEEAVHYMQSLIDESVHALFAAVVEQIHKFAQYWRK

Cc1noc(-c2cc(-c3cc(S(=O)(=O)N[C@H]4C[C@@H](O)C4)ccc3C)cnc2N)n1 [Example 5.5a, 3-(6-Amino-5-(3-methyl-1,2,4-oxadiazol-5-yl)pyridin-3-yl)-N-((1s,3s)-3-hydroxycyclobutyl)-4-methylbenzenesulfonamide]
IC50 (mTOR): > 10 µM
IC50 (Vps34): > 10 µM

Cc1cc(-c2cc(-c3cc(S(=O)(=O)NCC4(CO)CCCCC4)ccc3C)cnc2N)on1 [Example 37.3, 3-(6-Amino-5-(3-methylisoxazol-5-yl)pyridin-3-yl)-N-((1-(hydroxymethyl)cyclohexyl)methyl)-4-methylbenzenesulfonamide]
IC50 (mTOR): 3 µM
IC50 (Vps34): > 10 µM

Cc1ncc(-c2cc(-c3cc(S(=O)(=O)NCC(C)(C)O)ccc3C)cnc2N)s1 [Example 15, 3-[6-Amino-5-(2-methyl-thiazol-5-yl)-pyridin-3-yl]-N-(2-hydroxy-2-methyl-propyl)-4-methyl-benzenesulfonamide]
IC50 (mTOR): 7.9 µM
IC50 (Vps34): 1.62 µM

Cc1cc(-c2cc(-c3cc(S(=O)(=O)NCC4(C)COC4)ccc3C)cnc2N)on1 [Example 17, 3-[6-Amino-5-(3-methyl-isoxazol-5-yl)-pyridin-3-yl]-4-methyl-N-(3-methyl-oxetan-3-ylmethyl)-benzenesulfonamide hydrochloride]
IC50 (mTOR): 8.5 µM
IC50 (Vps34): 8.1 µM

Cc1ccc(S(=O)(=O)NCC(C)(C)O)cc1-c1cnc(N)c(-c2cn(C)nn2)c1 [Example 63, 3-(6-Amino-5-(1-methyl-1H-1,2,3-triazol-4-yl)pyridin-3-yl)-N-(2-hydroxy-2-methylpropyl)-4-methylbenzenesulfonamide hydrochloride]
IC50 (PI 4-kinase beta): 9.6 µM
IC50 (Vps34): > 10 µM

Cc1cc(-c2cc(-c3cc(S(=O)(=O)N[C@@H]4CCNC(=O)C4)ccc3C)cnc2N)on1 [Example 37.4, (R)-3-(6-Amino-5-(3-methylisoxazol-5-yl)pyridin-3-yl)-4-methyl-N-(2-oxopiperidin-4-yl)benzenesulfonamide]
IC50 (PI 4-kinase beta): 2.4 µM
IC50 (Vps34): > 10 µM

Cc1cc(-c2cc(-c3cc(S(=O)(=O)NC4CC4)ccc3C)cnc2N)on1 [Example 31, 3-(6-Amino-5-(3-methylisoxazol-5-yl)pyridin-3-yl)-N-cyclopropyl-4-methylbenzenesulfonamide]
IC50 (PI 4-kinase beta): 1.26 µM
IC50 (Vps34): > 10 µM

Cc1noc(-c2cc(-c3cc(S(=O)(=O)NCC4(O)CCOCC4)ccc3C)cnc2N)n1 [Example 51, 3-(6-Amino-5-(3-methyl-1,2,4-oxadiazol-5-yl)pyridin-3-yl)-N-((4-hydroxytetrahydro-2H-pyran-4-yl)methyl)-4-methylbenzenesulfonamide]
IC50 (PI 4-kinase beta): > 10 µM
IC50 (Vps34): > 10 µM

Cc1cccc(NS(=O)(=O)c2ccc(C)c(-c3cnc(N)c(-c4nc(C)no4)c3)c2)n1 [Example 72, 3-(6-Amino-5-(3-methyl-1,2,4-oxadiazol-5-yl)pyridin-3-yl)-4-methyl-N-(6-methylpyridin-2-yl)benzenesulfonamide]
IC50 (PI 4-kinase beta): > 10 µM
IC50 (Vps34): > 10 µM

Cc1ccc(S(=O)(=O)NCC(C)(C)O)cc1-c1cnc(N)c(-c2ccn(C)n2)c1 [Example 110, 3-(6-amino-5-(1-methyl-1H-pyrazol-3-yl)pyridin-3-yl)-N-(2-hydroxy-2-methylpropyl)-4-methylbenzenesulfonamide]
IC50 (PI 4-kinase beta): > 10 µM
IC50 (Vps34): > 10 µM

Cc1ncc(-c2cc(-c3cc(S(=O)(=O)N[C@H]4CC[C@H](CO)CC4)ccc3C)cnc2N)o1 [Example 104.11, 3-(6-amino-5-(2-methyloxazol-5-yl)pyridin-3-yl)-N-((1r,4r)-4-(hydroxymethyl)cyclo-hexyl)-4-methylbenzenesulfon-amide]
IC50 (PI 4-kinase beta): 0.5 µM
IC50 (Vps34): 0.3 µM

Cc1noc(-c2cc(-c3cc(S(=O)(=O)NCC(C)(C)O)c(F)cc3C)cnc2N)n1 [Example 85, 5-(6-Amino-5-(3-methyl-1,2,4-oxadiazol-5-yl)pyridin-3-yl)-2-fluoro-N-(2-hydroxy-2-methylpropyl)-4-methylbenzenesulfonamide]
IC50 (PI 4-kinase beta): > 10 µM
IC50 (Vps34): > 10 µM
